Experimental findings from publication PMC11672292, “Discovery of Balasubramide Derivative with Tissue‐Specific Anti‐Inflammatory Activity Against Acute Lung Injury by Targeting VDAC1” (Advanced Science, 2024) are described below.

Structures are written as SMILES.

The target of series [1] is T1, recombinant human VDAC1 protein (rhVDAC1) (Homo sapiens, UniProt P21796).
T1 construct: purchased Atagenix, China
The series can be described thus: Surface plasmon resonance (SPR). Format: binding. The procedure: To investigate the interaction of (+)3C‐20 and recombinant human VDAC1 protein (rhVDAC1), SPR experiments were performed. The overall experimental procedures were based on previous reports and had been improved with some modifications.^[ [35] ^] Briefly, 10 µM (+)3C‐20 was printed on the 3D photo‐crosslinking chip via the Biodot AD1520 chip array printer through a C─H covalent bond connection, and DMSO was conducted as a negative control at the same time. Following the vacuum‐dying and photo‐crosslinking reaction of the chip, the surface of the chip was flowed through with different concentrations (10, 40, 160, 640, 2560 nmol L^−1) of rhVDAC1 protein in PBST at 0.5 µL s^−1 for 600 s. Then, the proteins were dissociated from the surface of the chip in Glycine‐HCl (pH 2.0) at 2 µL s^−1 for 360 s. The binding signals (RU) were detected dynamically using Berthold bScreen LB 991. The RU responses of (+)3C‐20 with rhVDAC1 protein were recorded and ranked to determine the interaction intensity level, and the binding curve and affinity data were calculated by the system according to the Langmuir binding model.
(SPR reads the build-up and loss of mass on a sensor chip optically.)

Series [2] relates to mouse BMDMs. The series can be described thus: LPS-induced TNF-α release in BMDMs (ELISA). The format is cell-based. As to conditions: BMDM, read-out: IC50, inhibition of LPS-induced TNF-α release. The protocol:
(§1) The anti‐inflammatory effects of all (+)‐balasubramide derivatives were evaluated in Lipopolysaccharide (LPS, L2630, Sigma–Aldrich, USA)‐induced macrophage inflammation model. RAW264.7 cells were pretreated with various compounds or (+)3C‐20 at different concentrations for 3 h, and then stimulated with LPS (100 ng mL^−1) for 2 h for the detection of pro‐inflammatory factors expressions. Similarly, following 3 h co‐incubation with (+)3C‐20, mouse BMDMs were stimulated with LPS (100 ng mL^−1) for 3 h. TNF‐α protein in the culture medium supernatant was measured by a commercial ELISA kit (#1 217 202, DAKEWE, China) following the manufacture's protocols.

Series [3] concerns the target T2, VDAC1 (Mus musculus, UniProt Q60932).
T2 construct: endogenous in cells; host or cells: RAW264.7
The series can be described thus: Cellular thermal shift assay (CETSA) in RAW264.7 cells. The format is binding. Conditions: 20 µM, versus DMSO. The protocol: (§2) For CETSA experiments, RAW264.7 cells were incubated with DMSO or (+)3C‐20 (20 µM) in DMEM for 3 h at standard culture conditions. After washed twice with PBS, the cells were collected and divided equally into 12 groups using PBS containing protease and phosphatase inhibitor cocktail. All the samples were heated in a module with pre‐set temperature (37–81 °C) for 3 min, and balanced at 25 °C for another 3 min. Samples were freeze‐thawed with liquid nitrogen three times to completely lyse cells. The 60 µL supernatant containing soluble protein was isolated by centrifugation (13 800 × g, 20 min, 4 °C), mixed with 20 µL laemmli buffer (4 ×), and heated for 10 min at 95 °C. Eventually, the samples were separated by 10% SDS‐PAGE gels for immunoblotting analysis. For ITDRF experiments, the procedures and details were similar to CETSA experiments. In brief, the RAW264.7 cells were seeded in 6‐well plates, incubated with different concentrations of (+)3C‐20, and heated at a designed temperature.

Series [4] concerns the target T3, VDAC2 (Mus musculus, UniProt Q60930).
T3 construct: endogenous in cells; host or cells: RAW264.7
T3 sequence (Q60930 1-295): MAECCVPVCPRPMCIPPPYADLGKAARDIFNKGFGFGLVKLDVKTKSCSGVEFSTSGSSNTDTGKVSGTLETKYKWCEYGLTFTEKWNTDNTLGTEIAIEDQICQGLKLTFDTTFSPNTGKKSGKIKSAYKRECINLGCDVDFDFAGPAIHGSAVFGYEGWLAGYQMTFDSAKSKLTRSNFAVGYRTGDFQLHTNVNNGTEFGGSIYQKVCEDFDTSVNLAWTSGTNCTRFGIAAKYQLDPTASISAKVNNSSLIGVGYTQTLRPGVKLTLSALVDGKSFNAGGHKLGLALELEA
The series is described as above. The format is binding. As to conditions: 20 µM. The protocol:
as §2

Series [5] is described as follows: in vivo. As to conditions: mouse, iv.
From the text: To test the safety of (+)3C‐20 in mice, as previously reported,^[ [31] ^] we estimated the acute toxicity of (+)3C‐20 in mice using a sequential method.
Series [6] has as its system LPS-stimulated RAW264.7 cells. The series can be described thus: LPS-induced TNF-α release in RAW264.7 macrophages (ELISA). Format: cell-based, mouse. Conditions: Mus musculus, RAW264.7 cells. The procedure:
as §1
(In an ELISA, binding on a coated surface is turned into a signal by an enzyme label.)

T1 sequence (P21796 whole entry): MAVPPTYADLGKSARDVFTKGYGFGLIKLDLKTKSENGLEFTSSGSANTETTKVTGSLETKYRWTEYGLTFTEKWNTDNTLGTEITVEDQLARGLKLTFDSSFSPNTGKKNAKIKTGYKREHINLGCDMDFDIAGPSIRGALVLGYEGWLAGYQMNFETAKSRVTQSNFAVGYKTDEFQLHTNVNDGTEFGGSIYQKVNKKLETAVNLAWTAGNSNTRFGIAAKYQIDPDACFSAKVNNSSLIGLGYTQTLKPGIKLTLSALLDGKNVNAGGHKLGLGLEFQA
T2 sequence (Q60932 14-296): as the sequence (P21796 whole entry) above, with T55N, M129V, A160S, I227V counted along it

With `O=C(CCc1ccc(C(F)(F)F)cc1)O[C@@H]1C(=O)NCCc2c([nH]c3ccccc23)[C@H]1c1ccc(C(F)(F)F)cc1` [(+)3C-20], the Kd (commonly a measure of binding affinity in units of concentration) in series [1] (hVDAC1, printed in picture of Figure 5G) was 3.95 µM; in series [1] (rhVDAC1), approximately 3.95 µM. In addition, the IC50 (usually the concentration needed to halve the response being measured) turned out to be 3.64 µM in series [2] and 11.8 µM in series [6] (read-out: IC50, inhibition of LPS-induced TNF-α release). Also, in series [3], the “thermal stabilization of VDAC1 (CETSA)” value is given as “significant thermal stabilization”. In series [4], the “thermal stability of VDAC2 (CETSA)” value is “did not improve the thermal stability”. For the same molecule, the 50% lethal dose (LD50) (as a rule, the dose expected to kill half of the subjects tested) in series [5] is 185 mg/kg. Moreover, the inhibition (usually the change of the read-out against control, counted positive when it falls) at 10 µM in series [6] (10 μM + LPS (100 ng/mL), n = 3, read-out: Inhibition rate (%) of TNF-α release) worked out at 82 ± 3.93%.
